Results as given in US6645960B1, “Antifungal sordaricin derivatives” (Glaxo Wellcome S.A., priority 1999, dated 2003).

Legend:
Candida albicans 4711 = experiment: standard in vitro screen, minimum inhibiting concentration (MIC) by two-fold serial dilution, in the presence or absence of mouse serum; format: cell-based; conditions: for MIC C.albicans4711: absence of mouse serum; for MIC 50%serum C.albicans4711: presence of 50% mouse serum
Protocol: The in vitro evaluation of the anti-fungal activity of compounds of the invention was performed on liquid or solid medium by the anti-fungal two-fold serial dilution technique of determining the minimum inhibitory concentration (MIC) of anti-fungal agent that inhibited development of growth after 24 to 48 hours of incubation at 37° C. For example a series of agar plates or broth microdilution panels containing two-fold dilutions of anti-fungal agent were inoculated with a standard culture of a clinically relevant pathogen, in the presence and absence of activated or inactivated serum. The agar plates or broth microdilution panels were then examined for the presence or absence of growth of the fungus and the appropriate MIC values determined. […] Compounds of formula (I) have been tested for antifungal activity in a standard in vitro screen and the minimum inhibiting concentration (MIC;μg/ml) determined for each compound against a relevant strain of Candida albicans in the presence or absence of mouse serum.

[1] = test system: battery of fungal organisms; conditions: tested against a battery of fungal organisms; cited from earlier work

Compound	MIC C.albicans4711 (Candida albicans 4711; hydrochloride) [µg/mL]	MIC 50%serum C.albicans4711 (Candida albicans 4711; hydrochloride) [µg/mL]	antifungal activity [1]	MIC 50%serum C.albicans4711 (Candida albicans 4711) [µg/mL]	further results
C=CCN1C[C@H](OC[C@@]23C[C@@H]4[C@H](C)CC[C@H]4[C@@]4(C=O)C[C@@H]2C=C(C(C)C)[C@@]34C(=O)OC(C)OC(=O)OCC)O[C@H](C)C1.Cl (single isomer, unassigned) [Example 2]	8	0.12			
C=CCN1C[C@H](OC[C@@]23C[C@@H]4[C@H](C)CC[C@H]4[C@@]4(C=O)C[C@@H]2C=C(C(C)C)[C@@]34C(=O)OC(C)OC(=O)OCC)O[C@H](C)C1.Cl (single isomer, unassigned) [Example 3]	62	0.06			
CO[C@H]1[C@@H](O)[C@H](O)[C@H](OC[C@@]23C[C@@H]4[C@H](C)CC[C@H]4[C@@]4(C=O)CC2C=C(C(C)C)[C@@]34C(=O)O)O[C@@H]1C [sordarin]			only moderately active		
C/C=C/C=C\C(=O)O[C@H]1[C@H](O)[C@H](OCC23C[C@@H]4[C@H](C)CC[C@H]4C4(C=O)CC2C=C(C(C)C)C34C(=O)O)O[C@H](C)[C@H]1OC (stereo partly drawn) [zofimarin]			only moderately active		
[[1R-(1α,3aβ,4β,4aβ,7β,7aα,8aβ)]8a-[(2R,6R)-(4-allyl-6-methyl-morpholin-2-yl)-oxymethyl]-4-formyl-4,4a,5,6,7,7a,8,8a-octahydro-7-methyl-3-(1-methylethyl)-1,4-methano-s-indacene-3a(1H)-carboxylic acid, phthalidyl ester hydrochloride [Example 4]				0.25	
[[1R-(1α,3aβ,4β,4aβ,7β,7aα,8aβ)]8a-[(2R,6R)-(4-allyl-6-methyl-morpholin-2-yl)-oxymethyl]-4-formyl-4,4a,5,6,7,7a,8,8a-octahydro-7-methyl-3-(1-methylethyl)-1,4-methano-s-indacene-3a(1H)-carboxylic acid, pivaloyloxymethyl ester hydrochloride [Example 5]				0.05	MIC C.albicans4711 (Candida albicans 4711): >125 µg/mL
